Patent US9585933B2, “Therapeutic use of peptide inhibitors of NADPH oxidase; aerosolization as a delivery mechanism” (University of Pittsburgh—Of the Commonwealth System of …, priority 2011, dated 2017)
Where no end group is shown, it is not given here.

Experiments:
[1] = target: T1, Nox2 oxidase (COS-Nox2 lysate) (Homo sapiens, UniProt P14598); experiment: EPR with spin probe CMH, O2- production in COS-Nox2 lysates; format: biochemical; conditions: 10 μM peptide, vehicle 36330±2658
T1 construct: host or cells: COS 7 cells, stably transfected; cell lysate used
T1 sequence (P14598 1-390): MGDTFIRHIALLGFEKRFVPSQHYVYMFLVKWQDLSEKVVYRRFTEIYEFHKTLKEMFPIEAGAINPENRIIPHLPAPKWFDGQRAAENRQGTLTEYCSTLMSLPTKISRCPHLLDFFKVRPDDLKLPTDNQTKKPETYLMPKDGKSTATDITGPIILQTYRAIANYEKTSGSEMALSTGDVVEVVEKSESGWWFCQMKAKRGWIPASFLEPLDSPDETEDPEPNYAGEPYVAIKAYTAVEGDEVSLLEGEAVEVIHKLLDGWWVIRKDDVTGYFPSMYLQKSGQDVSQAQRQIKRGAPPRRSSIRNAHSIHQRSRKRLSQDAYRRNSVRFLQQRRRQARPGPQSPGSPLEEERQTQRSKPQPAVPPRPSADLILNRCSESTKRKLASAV
Method: (§1) To test this hypothesis, the inhibitory activity of Nox2ds was assessed in cell-free assays using reconstituted systems expressing either Nox1, 2 or 4 oxidase. Nox 2 oxidase was recapitulated by stably transfecting COS 7 cells with Nox2, p22phox, p47phox, and p67phox (aka COS-Nox2). Nox1 oxidase was obtained by transfecting COS 7 cells with Nox1, p22phox, NOXO1 and NOXA1 (COS-Nox1), and Nox 4 oxidase was regenerated by transfection of COS 7 cells with Nox4 and p22phox. […] Our new data support selectivity of Nox2ds peptide in differentiating the contribution of Nox2 vs. Nox1 and Nox4 NADPH oxidase and its potential clinical use in ameliorating cardiopulmonary diseases.
The spin probe 1-hydroxy-3-methoxycarbonyl-2,2,5,5-tetramethylpyrrolidine hydrochloride (CMH; Alexis Corp., San Diego, Calif., USA) was used to examine O2^− production in COS-Nox2 cell lysates using a Bruker eScan table-top EPR spectrometer (Bruker Biospin, USA). Superoxide production was measured in oxidase assay buffer (65 mM sodium phosphate buffer, pH 7.0, 1 mM EGTA, 10 μM FAD, 1 mM MgCl2, 2 mM NaN3) supplemented with 50 μM CMH. […] Analyses of the EPR spectra peak heights were used to quantify the amount of O2^− produced by the lysates and were compared with buffer-only control spectra or spectra in the presence of 10 μM Nox2ds, 10 μM Scrmb Nox2ds, or 150 U/ml SOD. […]

[2] = target: T2, Nox2 oxidase (COS-Nox2 lysate: Nox2, p22phox, p47phox, p67phox) (Homo sapiens, UniProt P14598); experiment: Cell-free SOD-inhibitable cytochrome c reduction assay, O2- production in COS-Nox2 lysates; format: biochemical; conditions: for rate of O2- generation, SOD-inhibitable reduction of cytochrome c: 0 μM control 1.33±0.1
T2 construct: host or cells: COS 7 cells, stably transfected; cell lysate used
T2 sequence (P14598 1-390): T1 sequence (P14598 1-390)
Method: as §1
COS-Nox2: COS 7 cells transfected with p22^phox, Nox2, p47^phox and p67^phox (M. Dinauer, Indiana University). (Price M O, McPhail L C, Lambeth J D, Han C H, Knaus U G, Dinauer M C. Blood. 2002 Apr. 15; 99(8):2653-61.)
Superoxide (O2^−) production was measured in COS-Nox1 and COS-Nox2 lysates by determining the rate of O2^− dismutase (SOD) inhibitable cytochrome c reduction and by electron paramagnetic resonance (EPR).
COS-Nox2, COS-Nox1/NOXO1/NOXA1, and COS-22 cells were suspended to a concentration of 5×10^7 cells/ml in ice-cold disruption buffer (8 mM potassium, sodium phosphate buffer, pH 7.0, 131 mM NaCl, 340 mM sucrose, 2 mM NaN3, 5 mM MgCl2, 1 mM EGTA, 1 mM EDTA, and protease inhibitor cocktail). The cells were lysed by five freeze/thaw cycles and passed through a 30-gauge needle five times to further lyse the cells. Cell disruption was confirmed by phase-contrast microscopy. The cell lysate was centrifuged at 1000 g for 10 min at 4° C. to remove unbroken cells, nuclei, and debris. Throughout all these procedures, extreme care was taken to maintain the lysate at a temperature close to 0° C. Superoxide production was calculated from the initial linear rate (over 10 min) of SOD-inhibitable cytochrome c reduction quantified at 550 nm using the extinction coefficient of 21.1 mM-1 cm-1 (Biotek Synergy 4 hybrid multimode microplate reader). The oxidase assay buffer consisted of 65 mM sodium phosphate buffer (pH 7.0), 1 mM EGTA, 10 μM FAD, 1 mM MgCl2, 2 mM NaN3, and 0.2 mM cytochrome c. The components of the cell-free system were added in the following order: oxidase assay buffer, cell lysate (5×10^5 cell equivalents/well), and Nox2ds/Scrmb Nox2ds peptides at a final concentration of 0.1, 0.3, 1.0, 3.0, and 10 μM. The plates were placed on an orbital shaker to mix contents for 5 min at 120 movements/min at room temperature. LIDS, an established lipid activator of phagocyte cell-free systems, was added at a concentration of 130 μM, and O2^− production was initiated by the addition of 180 μM NADPH. The concentration of Nox2ds peptide that caused 50% inhibition of O2^− production (IC50) in COS-Nox2 cell lysates was calculated by Prism 5 (GraphPad Software, La Jolla, Calif., USA).
Cytochrome C Assay. FIG. 3A. Rate of O2^− production in COS-Nox2 lysates pretreated with Nox2ds or scrambled control (Scrmb Nox2ds). O2^− production was initiated by the addition of NADPH and measured by the SOD-inhibitable cytochrome c reduction for 10 min.

CSTRVRRQL-NH2 [Nox2ds, CSTRVRRQL]
CM radical intensity (EPR, O2- production) [1]: 18360±2666
rate of O2- generation, SOD-inhibitable reduction of cytochrome c ([2]; 0.1 μM peptide): 1.36±0.1 nmol O2^−/min/10^7 lysate-cell equivalents
rate of O2- generation, SOD-inhibitable reduction of cytochrome c ([2]; 0.3 μM peptide): 1.05±0.2 nmol O2^−/min/10^7 lysate-cell equivalents
rate of O2- generation, SOD-inhibitable reduction of cytochrome c ([2]; 1 μM peptide): 0.83±0.1 nmol O2^−/min/10^7 lysate-cell equivalents
rate of O2- generation, SOD-inhibitable reduction of cytochrome c ([2]; 3 μM peptide): 0.82±0.1 nmol O2^−/min/10^7 lysate-cell equivalents
rate of O2- generation, SOD-inhibitable reduction of cytochrome c ([2]; 10 μM peptide): 0.54±0.1 nmol O2^−/min/10^7 lysate-cell equivalents
inhibition of Nox2-oxidase O2- production (in words) ([2]; cytochrome c assay): concentration-dependently inhibited
